This passage reports Ki results from US7851474B2, “Dipiperazinyl ketones and related analogues” (Neurogen Corporation, priority 2005, dated 2010).

T1 sequence (Q9Y5N1 with tags, fused parts or gaps E19D): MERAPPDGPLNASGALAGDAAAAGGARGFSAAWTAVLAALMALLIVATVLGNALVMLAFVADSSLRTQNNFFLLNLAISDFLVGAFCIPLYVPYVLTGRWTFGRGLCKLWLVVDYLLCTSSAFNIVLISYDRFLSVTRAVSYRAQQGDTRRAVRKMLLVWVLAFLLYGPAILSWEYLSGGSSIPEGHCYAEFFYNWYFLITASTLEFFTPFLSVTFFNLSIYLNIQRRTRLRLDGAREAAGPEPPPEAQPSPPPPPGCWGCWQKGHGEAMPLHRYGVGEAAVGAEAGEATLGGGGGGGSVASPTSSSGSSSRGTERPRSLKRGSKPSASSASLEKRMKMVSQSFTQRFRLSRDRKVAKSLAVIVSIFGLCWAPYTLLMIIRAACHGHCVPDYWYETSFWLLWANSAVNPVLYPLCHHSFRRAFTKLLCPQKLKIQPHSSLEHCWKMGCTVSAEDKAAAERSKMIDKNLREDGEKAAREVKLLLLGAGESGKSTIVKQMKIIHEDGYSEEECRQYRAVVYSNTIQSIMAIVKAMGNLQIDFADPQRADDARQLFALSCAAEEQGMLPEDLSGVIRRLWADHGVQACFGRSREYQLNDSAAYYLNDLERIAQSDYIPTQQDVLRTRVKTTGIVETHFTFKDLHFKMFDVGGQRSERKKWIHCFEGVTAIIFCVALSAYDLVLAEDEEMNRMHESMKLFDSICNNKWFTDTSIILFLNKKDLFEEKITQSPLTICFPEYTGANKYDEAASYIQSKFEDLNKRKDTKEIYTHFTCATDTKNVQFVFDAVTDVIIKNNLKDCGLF

One experiment concerns the target T1, chimeric human H3 receptor (Homo sapiens, UniProt Q9Y5N1, E19D).
T1 construct: made in house; host or cells: Sf9 insect cells (baculovirus infection); P2 membrane preparation
The experiment in a line: Chimeric human H3 receptor GTP binding assay (agonist-stimulated GTP-gamma35S binding, Example 7). The format is biochemical.
Settings: not given
The essentials: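 Sf9 membranes co-expressing the chimeric receptor and heterotrimeric G-protein subunits, 35 μg protein per tube, in pH 7.4 Tris buffer with 10 μM GDP. Test compounds at 10^−10 to 10^−6 M with 1 μM histamine, 60 min at room temperature. Filter-bound GTP-gamma^35S read by scintillation; IC50 from non-linear regression of dose-response curves.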
In general terms: Binding of GTPγS marks nucleotide exchange on a G protein.
Regarding `CC(=O)C1(c2ccccc2)CCN(CC(=O)N2CCN(C3CCC3)CC2)CC1` [Compound 478, 1-{1-[2-(4-cyclobutylpiperazin-1-yl)-2-oxoethyl]-4-phenylpiperidin-4-yl}ethanone], the Ki is less than 1000 nM.

On to `C=CCN1CCN(C(=O)CN2CCN(c3ccc(C(F)(F)F)cc3)CC2)CC1` [Compound 487, 1-allyl-4-({4-[4-(trifluoromethyl)phenyl]piperazin-1-yl}acetyl)piperazine], for which the Ki was less than 1000 nM.

With `CCCCN1CCN(C(=O)CN2CCN(c3ccc(C(F)(F)F)cc3)CC2)CC1` [Compound 496, 1-butyl-4-({4-[4-(trifluoromethyl)phenyl]piperazin-1-yl}acetyl)piperazine], the Ki was less than 1000 nM.

Still in this experiment, the particulars now being: "*" in Ki of Table II; assay of Example 7; read-out: Ki.
Turning to `CC(C)N1CCN(C(=O)CN2CCC(N(C)C)C2)CC1` (stereo not shown) [Compound 446, 1-[2-(4-isopropylpiperazin-1-yl)-2-oxoethyl]-N,N-dimethylpyrrolidin-3-amine], the Ki is less than 1000 nM.

For the compound `CCC(C)N1CCN(C(=O)CN2CCC(N3CCCCC3)CC2)CC1` (stereo not shown) [Compound 447], the Ki is less than 1000 nM.

Regarding `CCC(C)N1CCN(C(=O)CN2CCC(N3CCC(C)CC3)CC2)CC1` (stereo not shown) [Compound 448, 1′-[2-(4-sec-butylpiperazin-1-yl)-2-oxoethyl]-4-methyl-1,4-bipiperidine], the Ki was less than 1000 nM.

For the compound `CCCN(CC1CC1)C1CCN(CC(=O)N2CCN(C(C)CC)CC2)CC1` (stereo not shown) [Compound 449, 1-[2-(4-sec-butylpiperazin-1-yl)-2-oxoethyl]-N-(cyclopropylmethyl)-N-propylpiperidin-4-amine], the Ki was less than 1000 nM.

As to `CCCN(CCC)C1CCN(CC(=O)N2CCN(C(C)CC)CC2)CC1` (stereo not shown) [Compound 450, 1-[2-(4-sec-butylpiperazin-1-yl)-2-oxoethyl]-N,N-dipropylpiperidin-4-amine], the Ki is less than 1000 nM.

On to `CC1CN(c2ccc(C(F)(F)F)cn2)CCN1CC(=O)N1CCN(C(C)(C)C)CC1` (stereo not shown) [Compound 451, 1-[2-(4-tert-butylpiperazin-1-yl)-2-oxoethyl]-2-methyl-4-[5-(trifluoromethyl)pyridin-2-yl]piperazine], for which the Ki was less than 1000 nM.

`O=C(CN1CCN(c2ccc(-c3cc(C(F)(F)F)ccc3Cl)cc2)CC1)N1CCN(C2CCC2)CC1` [Compound 453, 1-[2′-chloro-5′-(trifluoromethyl)biphenyl-4-yl]-4-[2-(4-cyclobutylpiperazin-1-yl)-2-oxoethyl]piperazine]: the Ki is less than 1000 nM.

As to `CC(=O)c1cccc(-c2cnc(N3CCN(CC(=O)N4CCN(C5CCC5)CC4)CC3)cn2)c1` [Compound 454, 1-[3-(5-{4-[2-(4-cyclobutylpiperazin-1-yl)-2-oxoethyl]piperazin-1-yl}pyrazin-2-yl}phenyl]ethanone], the inhibitory constant (Ki) is less than 1000 nM.

As to `CC(=O)c1cccc(-c2ccc(N3CCN(CC(=O)N4CCN(C5CCC5)CC4)CC3)nn2)c1` [Compound 455, 1-[3-(6-{4-[2-(4-cyclobutylpiperazin-1-yl)-2-oxoethyl]piperazin-1-yl}pyridazin-3-yl)phenyl]ethanone], the Ki was less than 1000 nM.

Take `O=C(CN1CCN(c2ccc(-c3cc(C(F)(F)F)cc(C(F)(F)F)c3)cc2)CC1)N1CCN(C2CCC2)CC1` [Compound 457, 1-[3′,5′-bis(trifluoromethyl)biphenyl-4-yl]-4-[2-(4-cyclobutylpiperazin-1-yl)-2-oxoethyl]piperazine]: the Ki is less than 1000 nM.

For the compound `O=C(CN1CCN(c2ccc(-c3ccc4c(c3)OCO4)cc2)CC1)N1CCN(C2CCC2)CC1` [Compound 458, 1-[4-(1,3-benzodioxol-5-yl)phenyl]-4-[2-(4-cyclobutylpiperazin-1-yl)-2-oxoethyl]piperazine], the Ki is less than 1000 nM.

For the compound `CC(=O)c1ccc(-c2ccc(N3CCN(CC(=O)N4CCN(C5CCC5)CC4)CC3)nn2)cc1` [Compound 459, 1-[4-(6-{4-[2-(4-cyclobutylpiperazin-1-yl)-2-oxoethyl]piperazin-1-yl}pyridazin-3-yl)phenyl]ethanone], the Ki is less than 1000 nM.

As for `O=C(CN1CCN(c2ccc(S(=O)(=O)Cc3ccccc3)cc2)CC1)N1CCN(C2CCC2)CC1` [Compound 460, 1-[4-(benzylsulfonyl)phenyl]-4-[2-(4-cyclobutylpiperazin-1-yl)-2-oxoethyl]piperazine], the Ki was less than 1000 nM.

`CC(=O)c1ccc(N2CCN(CC(=O)N3CCN(C4CCC4)CC3)CC2)cc1C(F)(F)F` [Compound 461, 1-[4-{4-[2-(4-cyclobutylpiperazin-1-yl)-2-oxoethyl]piperazin-1-yl}-2-(trifluoromethyl)phenyl] ethanone]: the Ki is less than 1000 nM.

Turning to `CC(=O)c1ccc(N2CCN(CC(=O)N3CCN(C4CCC4)CC3)CC2)c(C(F)(F)F)c1` [Compound 462, 1-[4-{4-[2-(4-cyclobutylpiperazin-1-yl)-2-oxoethyl]piperazin-1-yl}-3-(trifluoromethyl)phenyl] ethanone], the inhibition constant (Ki) is less than 1000 nM.

Regarding `O=C(CN1CCN(c2ccc(-c3ccc(Cl)c(C(F)(F)F)c3)cc2)CC1)N1CCN(C2CCC2)CC1` [Compound 463, 1-[4′-chloro-3′-(trifluoromethyl)biphenyl-4-yl]-4-[2-(4-cyclobutylpiperazin-1-yl)-2-oxoethyl]piperazine], the Ki is less than 1000 nM.

`O=C(CN1CCN(c2ccc(Cl)c(C(F)(F)F)c2)CC1)N1CCN(C2CCC2)CC1` [Compound 464, 1-[4-chloro-3-(trifluoromethyl)phenyl]-4-[2-(4-cyclobutylpiperazin-1-yl)-2-oxoethyl]piperazine]: the Ki is less than 1000 nM.

Turning to `O=C(CN1CCN(c2ccc(Cl)c(C(F)(F)F)c2)CC1)N1CCN(C2CCCC2)CC1` [Compound 466, 1-[4-chloro-3-(trifluoromethyl)phenyl]-4-[2-(4-cyclopentylpiperazin-1-yl)-2-oxoethyl]piperazine], the Ki was less than 1000 nM.

Regarding `CC(C)N1CCN(C(=O)CN2CCN(c3ccc(Cl)c(C(F)(F)F)c3)CC2)CC1` [Compound 467, 1-[4-chloro-3-(trifluoromethyl)phenyl]-4-[2-(4-isopropylpiperazin-1-yl)-2-oxoethyl]piperazine], the Ki was less than 1000 nM.

With `CC(C)N1CCN(C(=O)CN2CCN(c3ccc(F)c(C(F)(F)F)c3)CC2)CC1` [Compound 468, 1-[4-fluoro-3-(trifluoromethyl)phenyl]-4-[2-(4-isopropylpiperazin-1-yl)-2-oxoethyl]piperazine], the Ki was less than 1000 nM.

As for `O=C(CN1CCC(N2CCCCCC2)CC1)N1CCN(C2CCC2)CC1` [Compound 479, 1-{1-[2-(4-cyclobutylpiperazin-1-yl)-2-oxoethyl]piperidin-4-yl}azepane], the Ki is less than 1000 nM.

Consider `O=C(CN1CCC(N2CCCCCC2)CC1)N1CCN(C2CCCCC2)CC1` [Compound 480, 1-{1-[2-(4-cyclohexylpiperazin-1-yl)-2-oxoethyl]piperidin-4-yl}azepane], for which the Ki is less than 1000 nM.

As for `CCC(C)N1CCN(C(=O)CN2CCC(N3CCCCCC3)CC2)CC1` (stereo not shown) [Compound 481, 1-{1-[2-(4-sec-butylpiperazin-1-yl)-2-oxoethyl]piperidin-4-yl}azepane], the Ki is less than 1000 nM.

As for `CC(=O)N1CCN(CC(=O)N2CCN(C3CCC3)CC2)CC1` [Compound 483, 1-acetyl-4-[2-(4-cyclobutylpiperazin-1-yl)-2-oxoethyl]piperazine], the Ki was less than 1000 nM.

For the compound `CC(=O)N1CCN(CC(=O)N2CCN(C3CCCCC3)CC2)CC1` [Compound 484, 1-acetyl-4-[2-(4-cyclohexylpiperazin-1-yl)-2-oxoethyl]piperazine], the Ki is less than 1000 nM.

For `CC(=O)N1CCN(CC(=O)N2CCN(C3CCCC3)CC2)CC1` [Compound 485, 1-acetyl-4-[2-(4-cyclopentylpiperazin-1-yl)-2-oxoethyl]piperazine], the Ki was less than 1000 nM.

As for `O=C(N1CCN(C2CCC2)CC1)N1CCC2(CC1)C(=O)N(Cc1ccccc1)c1ccccc12` [Compound 488, 1-benzyl-1′-[(4-cyclobutylpiperazin-1-yl)carbonyl]spiro[indole-3,4′-piperidin]-2(1H)-one], the Ki was less than 1000 nM.

Regarding `O=C(N1CCN(C2CCCC2)CC1)N1CCC2(CC1)C(=O)N(Cc1ccccc1)c1ccccc12` [Compound 489, 1-benzyl-1′-[(4-cyclopentylpiperazin-1-yl)carbonyl]spiro[indole-3,4′-piperidin]-2(1H)-one], the Ki is less than 1000 nM.

In the case of `O=C(CN1CCC2(CC1)CN(Cc1ccccc1)c1cccnc12)N1CCN(C2CCC2)CC1` [Compound 490, 1′-benzyl-1-[2-(4-cyclobutylpiperazin-1-yl)-2-oxoethyl]-1′,2′-dihydrospiro[piperidine-4,3′-pyrrolo[3,2-b]pyridine]], the Ki was less than 1000 nM.

For the compound `O=C(CN1CCC2(CC1)C(=O)N(Cc1ccccc1)c1cccnc12)N1CCN(C2CCC2)CC1` [Compound 492, 1′-benzyl-1-[2-(4-cyclobutylpiperazin-1-yl)-2-oxoethyl]spiro[piperidine-4,3′-pyrrolo[3,2-b]pyridin]-2′(1′H)-one], the Ki was less than 1000 nM.

Consider `O=C(CN1CCN(c2cccc(-c3ccccc3)c2)CC1)N1CCN(C2CCC2)CC1` [Compound 493, 1-biphenyl-3-yl-4-[2-(4-cyclobutylpiperazin-1-yl)-2-oxoethyl]piperazine], for which the Ki is less than 1000 nM.

Turning to `O=C(CN1CCN(c2ccc(-c3ccccc3)cc2)CC1)N1CCN(C2CCC2)CC1` [Compound 494, 1-biphenyl-4-yl-4-[2-(4-cyclobutylpiperazin-1-yl)-2-oxoethyl]piperazine], the Ki is less than 1000 nM.

For `O=C(Cc1c(Cl)ccc(Cl)c1Cl)N1CCN(CC(=O)N2CCN(C3CCC3)CC2)CC1` [Compound 501, 1-cyclobutyl-4-({4-[(2,3,6-trichlorophenyl)acetyl]piperazin-1-yl}acetyl)piperazine], the Ki is less than 1000 nM.

In the case of `COc1ccc(CC(=O)N2CCN(CC(=O)N3CCN(C4CCC4)CC3)CC2)c(OC)c1` [Compound 507, 1-cyclobutyl-4-({4-[(2,4-dimethoxyphenyl)acetyl]piperazin-1-yl}acetyl)piperazine], the Ki is less than 1000 nM.

What is called Ki is the dissociation constant of the complex between target and ligand, obtained from inhibition or displacement.
